These results are taken from PubChem BioAssay (NCI).

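Protocol summary: plate cells (96-well), add compound at 5 concentrations, incubate 48 h, interpolate endpoints linearly. TGI denotes the concentration required for complete inhibition of growth.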

In one assay the test system is BT-549 breast. Nature of the assay: inhibition of tumour cell growth, NCI panel, 48 h.
For `CS(=O)(=O)OCCn1c(=O)n(CCOS(C)(=O)=O)c(=O)n(CCOS(C)(=O)=O)c1=O`, the TGI is more than 100 µM.
`c1ccc2c(c1)NC(C1OC3CCCN3C1C1Nc3ccccc3S1)S2` (stereo not given) showed a TGI of more than 100 µM.
As for `O=P(c1ccccc1)(c1ccccc1)N1O[C@@H](c2ccccc2)C=C[C@H]1c1ccccc1`, the TGI worked out at 32.4 µM.
As for `COc1nc(C#CCC(C)O)nc(OC)n1` (stereo not given), the TGI came to 36 µM.
The same measure, in the same setting: the same measure for `COC(=O)[C@]12CC[C@H]3CN(C(=O)OCc4ccccc4)[C@H]([C@H]31)[C@H](c1ccco1)N2S(=O)(=O)c1ccc(C)cc1`: 35.6 µM; for `O=C1C[C@H](Sc2ccccc2)C2(OCCO2)[C@@H](Sc2ccccc2)C1`: 5.41 µM; for `CCCNC(=O)CCC(C)[C@H]1CCC2C3C(C[C@H](OC(C)=O)[C@@]21C)[C@@]1(C)CCC2(C[C@H]1C[C@H]3OC(C)=O)OOC1(CCC(C)CC1)OO2` (stereo not given in full): 60.5 µM.
Same read-out and setting: the same measure for `CCN(C(=S)N[C@@H](Cc1ccccc1)C(=O)N[C@@H](CC(C)C)C(=O)OC)c1ccccc1`: more than 100 µM.
Same read-out and setting: under `CCCn1c(CN(Cc2nc3ccccc3n2CCC)Cc2nc3ccccc3n2CCC)nc2ccccc21` stands more than 58.4 µM; under `CSc1c(C#N)c(N)n2c1C(=O)N(c1ccccc1)C2=S`, more than 100 µM; under `NNC(=O)c1ccc[n+](CCc2ccccc2)c1`, more than 100 µM.
Molecule `COc1cc(NS(C)(=O)=O)ccc1N1Cc2cnc3ccc4[nH]c(C)cc1c4c23` returned a TGI of more than 100 µM.
Consider `CC12CC(=O)C3C(C(=O)C1)C32C` (stereo not given), for which the TGI was more than 100 µM.
The molecule `O=C1CN2C(c3ccccc3)=NN(c3ccc([N+](=O)[O-])cc3)C2(c2ccccc2)c2cc(Cl)ccc2N1CC1CC1` (stereo not given) displayed a TGI of more than 100 µM.
With `COc1ccc2cc3c4cc5c(cc4cc[n+]3cc2c1OC)OCO5`, the TGI worked out at 7.83 µM.
Molecule `CCN(CCO)CC1COc2ccccc2O1` (stereo not given) returned a TGI of more than 100 µM.
Consider `C/C(CC1C2CCCC1C2)=N\NC(N)=O` (stereo not given), for which the TGI was more than 100 µM.
The molecule `c1ccc2sc(SCSc3nc4ccccc4s3)nc2c1` returned a TGI of more than 100 µM.
`O=c1oc(-c2ccc(O)c(O)c2)cc2cccc(O)c12`: the TGI stood at 49 µM.
With `O=C1/C(=C\c2cccc(Oc3ccccc3)c2)S(=O)(=O)C(c2ccccc2)N1Cc1ccccc1` (stereo not given), the TGI turned out to be 98.6 µM.
The molecule `O=[N+]([O-])/C(C(Cl)=C(Cl)Cl)=C(\Nc1cccc2cccnc12)SCc1ccccc1` came in with a TGI of 35.6 µM.
As for `COc1ccc(C#CC(=O)O)c(OC)c1`, the TGI is more than 100 µM.
Consider `CCOC(=O)NC(=S)NN(C)C1=NCC(C)(C)S1`, for which the TGI is more than 100 µM.
Same read-out and setting: under `Cc1cc2[nH]c3[nH]c(=O)[nH]c(=O)c3c2cc1C` stands more than 100 µM.
Still for that read-out and setting: under `C/C=C/C=C/c1nc(C#N)c(N)o1` stands more than 100 µM.
Still for that read-out and setting: under `CC(C)COP(=O)(OCC(C)C)C(NS(=O)(=O)c1ccccc1)(C(F)(F)F)C(F)(F)F` stands 19.6 µM.
For the molecule `CC(O)C1CC1(CO)CNc1cc(Cl)nc(N)n1` (stereo not given), the TGI is more than 100 µM.

Another assay has as its system IGROV1 ovarian. Nature of the assay: inhibition of tumour cell growth, NCI panel, 48 h.
Molecule `CS(=O)(=O)OCCn1c(=O)n(CCOS(C)(=O)=O)c(=O)n(CCOS(C)(=O)=O)c1=O` returned a TGI of more than 100 µM.
On to `c1ccc2c(c1)NC(C1OC3CCCN3C1C1Nc3ccccc3S1)S2` (stereo not given), for which the TGI was more than 100 µM.
On to `O=P(c1ccccc1)(c1ccccc1)N1O[C@@H](c2ccccc2)C=C[C@H]1c1ccccc1`, for which the TGI is 28.9 µM.
The molecule `COc1nc(C#CCC(C)O)nc(OC)n1` (stereo not given) had a TGI of 42.3 µM.
Regarding `COC(=O)[C@]12CC[C@H]3CN(C(=O)OCc4ccccc4)[C@H]([C@H]31)[C@H](c1ccco1)N2S(=O)(=O)c1ccc(C)cc1`, the TGI worked out at 57.1 µM.
`O=C1C[C@H](Sc2ccccc2)C2(OCCO2)[C@@H](Sc2ccccc2)C1` had a TGI of 3.49 µM.
Molecule `CCCNC(=O)CCC(C)[C@H]1CCC2C3C(C[C@H](OC(C)=O)[C@@]21C)[C@@]1(C)CCC2(C[C@H]1C[C@H]3OC(C)=O)OOC1(CCC(C)CC1)OO2` (stereo not given in full) displayed a TGI of 4.36 µM.
On the same count and under the same terms, under `CCN(C(=S)N[C@@H](Cc1ccccc1)C(=O)N[C@@H](CC(C)C)C(=O)OC)c1ccccc1` stands more than 100 µM; under `CCCn1c(CN(Cc2nc3ccccc3n2CCC)Cc2nc3ccccc3n2CCC)nc2ccccc21`, 16.7 µM; under `CSc1c(C#N)c(N)n2c1C(=O)N(c1ccccc1)C2=S`, more than 100 µM.
As to `NNC(=O)c1ccc[n+](CCc2ccccc2)c1`, the TGI is more than 100 µM.
In turn, `COc1cc(NS(C)(=O)=O)ccc1N1Cc2cnc3ccc4[nH]c(C)cc1c4c23` registered a TGI of more than 100 µM.
Molecule `CC12CC(=O)C3C(C(=O)C1)C32C` (stereo not given) displayed a TGI of more than 100 µM.
Turning to `O=C1CN2C(c3ccccc3)=NN(c3ccc([N+](=O)[O-])cc3)C2(c2ccccc2)c2cc(Cl)ccc2N1CC1CC1` (stereo not given), the TGI was more than 100 µM.
On the same count and under the same terms, under `COc1ccc2cc3c4cc5c(cc4cc[n+]3cc2c1OC)OCO5` stands more than 32.7 µM.
`CCN(CCO)CC1COc2ccccc2O1` (stereo not given) displayed a TGI of more than 100 µM.
In the case of `C/C(CC1C2CCCC1C2)=N\NC(N)=O` (stereo not given), the TGI is more than 100 µM.
In turn, `c1ccc2sc(SCSc3nc4ccccc4s3)nc2c1` returned a TGI of more than 100 µM.
The molecule `O=c1oc(-c2ccc(O)c(O)c2)cc2cccc(O)c12` registered a TGI of more than 64.7 µM.
The same measure, in the same setting: under `CCOC(=O)NC(=S)NN(C)C1=NCC(C)(C)S1` stands more than 100 µM.
In turn, `Cc1cc2[nH]c3[nH]c(=O)[nH]c(=O)c3c2cc1C` had a TGI of more than 100 µM.
Molecule `C/C=C/C=C/c1nc(C#N)c(N)o1` showed a TGI of more than 100 µM.
On to `CC(C)COP(=O)(OCC(C)C)C(NS(=O)(=O)c1ccccc1)(C(F)(F)F)C(F)(F)F`, for which the TGI amounted to 16.8 µM.
In turn, `CC(O)C1CC1(CO)CNc1cc(Cl)nc(N)n1` (stereo not given) had a TGI of more than 100 µM.

The subject of the next assay is M14 melanoma. Nature of the assay: inhibition of tumour cell growth, NCI panel, 48 h.
In turn, `c1ccc2c(c1)NC(C1OC3CCCN3C1C1Nc3ccccc3S1)S2` (stereo not given) displayed a TGI of more than 100 µM.
Still for that read-out and setting: under `O=P(c1ccccc1)(c1ccccc1)N1O[C@@H](c2ccccc2)C=C[C@H]1c1ccccc1` stands 23.9 µM; under `COc1nc(C#CCC(C)O)nc(OC)n1` (stereo not given), 39.6 µM; under `COC(=O)[C@]12CC[C@H]3CN(C(=O)OCc4ccccc4)[C@H]([C@H]31)[C@H](c1ccco1)N2S(=O)(=O)c1ccc(C)cc1`, 44.6 µM.
`O=C1C[C@H](Sc2ccccc2)C2(OCCO2)[C@@H](Sc2ccccc2)C1` came in with a TGI of 6.52 µM.
Still for that read-out and setting: under `CCCNC(=O)CCC(C)[C@H]1CCC2C3C(C[C@H](OC(C)=O)[C@@]21C)[C@@]1(C)CCC2(C[C@H]1C[C@H]3OC(C)=O)OOC1(CCC(C)CC1)OO2` (stereo not given in full) stands more than 100 µM.
As to `CCN(C(=S)N[C@@H](Cc1ccccc1)C(=O)N[C@@H](CC(C)C)C(=O)OC)c1ccccc1`, the TGI was more than 100 µM.
In the case of `CCCn1c(CN(Cc2nc3ccccc3n2CCC)Cc2nc3ccccc3n2CCC)nc2ccccc21`, the TGI was found to be 42 µM.
`CSc1c(C#N)c(N)n2c1C(=O)N(c1ccccc1)C2=S`: the TGI is more than 100 µM.
Take `NNC(=O)c1ccc[n+](CCc2ccccc2)c1`: the TGI was more than 100 µM.
`COc1cc(NS(C)(=O)=O)ccc1N1Cc2cnc3ccc4[nH]c(C)cc1c4c23` had a TGI of more than 100 µM.
On the same count and under the same terms, under `CC12CC(=O)C3C(C(=O)C1)C32C` (stereo not given) stands more than 100 µM; under `O=C1CN2C(c3ccccc3)=NN(c3ccc([N+](=O)[O-])cc3)C2(c2ccccc2)c2cc(Cl)ccc2N1CC1CC1` (stereo not given), more than 100 µM; under `COc1ccc2cc3c4cc5c(cc4cc[n+]3cc2c1OC)OCO5`, 68 µM.
